In brackets after ≈: the same amount, converted by molar mass. Read-outs that look alike come from different tables or passages of the source.
Key:
[1] = test system: C. albicans 595/20; experiment: Fungistatic activity assay, broth microdilution; type: cell-based; details: Candida albicans, 595/20, 24 h
Experimental: (§1) Fungistatic activity was determined using Candida albicans ATCC 90028 from the American Type Culture Collection (ATCC, Manassas, VA, United States), and clinical isolates, C. albicans 636/20, C. albicans 595/20, and C. albicans 38 obtained from Wrocław Medical University, Wrocław, Poland.
(§2) All compounds were tested for biological activity against C. albicans ATTC 90028, C. albicans 636/20, C. albicans 595/20, and C. albicans 38 using the broth microdilution method. YPD medium (20 g glucose, 20 g Bacto Peptone, 10 g yeast extract, and 1 L of distilled water, pH 6.5) was used for the tests. The compound solutions were prepared in DMSO and diluted in YPD to obtain final concentrations in the range of 10–250 μg/mL. One hundred microlitres of each solution was pipetted into the wells of a 96-well microtiter plate. The inoculum was standardized to 0.5 McFarland standard and then diluted to obtain a final suspension with a cell density of 0.5–2.5 × 10^3 CFU/mL. The inoculum size was 100 μL. The positive control comprised DMSO added in the same concentration as the tested compounds in the inoculum, whereas the negative control consisted of DMSO diluted in the broth without the addition of inoculum. The microtiter plates were incubated in a Biosan PST-60 HL Plate Shaker-Thermostat (Riga, Latvia) at 35°C under shaking at 1,000 rpm for 24 h.

[2] = test system: C. albicans 636/20; experiment: Fungistatic activity assay, broth microdilution; type: cell-based; details: Candida albicans, 636/20, 24 h
Experimental: as §1, §2

[3] = Haemolytic activity assay; type: cell-based; details: human red blood cells (RBCs) from healthy donors, 37°C, read-out: Percentage of haemolysis
Experimental: This test is based on comparison of the cytotoxicity of all tested compounds in human red blood cells (RBCs) with that in a control group. RBCs for this method were obtained from a blood center from examined and healthy donors. The compounds were tested at 10, 20, 40, 60, 80, and 100 μM concentrations. The control sample contained only ethanol in the same volume as the test samples. […] The samples were incubated at 37°C for 1 h. Then, the absorbance at 540 nm was measured using a UV–Vis spectrophotometer (Specord 40, Analytik Jena, Jena, Germany). The haemolytic activity of the compounds was determined as the ratio of the absorbance of haemoglobin in the test samples to that in completely haemolyzed cells multiplied by 100%.

[4] = test system: RBCs membrane; experiment: Fluorescence spectroscopy of the RBCs membrane (DPH probe anisotropy); type: cell-based, human; details: for Fluorescence anisotropy of the DPH probe: membranes of RBCs, 37 °C; for Change in DPH anisotropy / RBCs membrane fluidity (in words): RBCs, 20, 60 and 100 μM
Experimental: Using the DPH probe, the anisotropy values of cell membranes of RBCs modified with the test compounds were measured. RBCs for this analysis were prepared according to the method described in subsection 2.5.3. Then, the DPH probe was added to RBCs with a haematocrit of 0.2%. The final concentration of the probe in the sample was 1.3 μM. The mixture was incubated protected from light at 37°C for 30 min. Then, the compounds dissolved in ethanol were added. The compounds were tested at 20, 60, and 100 μM concentrations. Samples with compounds and control samples with alcohol of the appropriate concentration were incubated at 37°C for 1 h. Measurements in triplicate were made in quartz cuvettes using a CARY Eclipse fluorimeter (Varian, San Diego, CA, United States) at 37°C. The excitation wavelength for the DPH probe is λexc = 360 nm and the emission wavelength is λem = 426 nm.

[5] = test system: Caco-2 cells; experiment: Resazurin-based viability assay; type: cell-based, human
Experimental: (§3) The human HepG2 and Caco-2 cell lines were obtained from the American Type Culture Collection (HB-8065™ and HTB-37™) and the MG-63 cell line was obtained from the European Collection of Authenticated Cell Cultures (Merck, Poznań, Poland). HepG2 cells were cultured in Dulbecco’s modified Eagle’s Medium - low glucose (Merck) supplemented with 10% foetal bovine serum (FBS) (Merck). Caco-2 cells were cultured in Dulbecco’s modified Eagle’s medium - high glucose (Merck) supplemented with 10% FBS, 2% HEPES buffer (Thermo Fisher Scientific, Warszawa, Poland), 1% Penicillin–Streptomycin-Amphotericin B Solution (100×, Merck), 1% MEM solution (100×, Thermo Fisher Scientific), and 1% Gentamycin Solution (10 mg/mL, Merck). MG-63 cells were cultured in Minimum Essential Medium (Merck) supplemented with 10% FBS. All cells were cultured in an atmosphere of 5% CO2 at 37°C.
(§4) HepG2, Caco-2, and […] were seeded in 96-well plates at 20,000 cells per well, and MG-63 cells at 10,000 cells per well, as described previously ([Marycz et al., 2012]; [Kornicka et al., 2017]). The tested compounds were dissolved in ethanol at 10 mg/mL. The concentrations were then adjusted to 1, 50, and 200 μg/mL in culture medium. Four controls were prepared: no ethanol added, and 0.01, 0.5, and 2% EtOH. The cells were treated with the compounds for 24 h. Then, cell viability was evaluated using the resazurin-based assay kit (TOX8), as described previously ([Grzesiak et al., 2011]; [Marycz et al., 2018]). The culture medium was replaced with medium containing 10% resazurin dye. The cells were incubated at 37°C in an atmosphere of 5% CO2 for 2 h. Absorbance levels were measured spectrophotometrically (Epoch) at a wavelengths of 600 nm for resazurin and 690 nm as a reference.

[6] = test system: C. albicans ATTC 90028; experiment: Fungistatic activity assay, broth microdilution; type: cell-based; details: Candida albicans, ATTC90028, 24 h
Experimental: as §1, §2

[7] = test system: C. albicans 38; experiment: Fungistatic activity assay, broth microdilution; type: cell-based, Candida albicans
Experimental: as §1, §2

[8] = test system: HepG2 cells; experiment: Resazurin-based viability assay; type: cell-based, human
Experimental: as §3, §4

[9] = test system: MG63 cells; experiment: Resazurin-based viability assay; type: cell-based, human; details: for Effect on MG63 proliferation / viability (in words): 24 h, 1, 50 and 200 μg/mL
Experimental: as §3, with “HepG2” for “The human HepG2 and Caco-2 cell lines were obtained from the American Type Culture Collection (HB-8065™ and HTB-37™) and the MG-63 cell line was obtained from the European Collection of Authenticated Cell Cultures (Merck, Poznań, Poland). HepG2”
The tested compounds were dissolved in ethanol at 10 mg/mL. The concentrations were then adjusted to 1, 50, and 200 μg/mL in culture medium. Four controls were prepared: no ethanol added, and 0.01, 0.5, and 2% EtOH. The cells were treated with the compounds for 24 h. […] The culture medium was replaced with medium containing 10% resazurin dye. The cells were incubated at 37°C in an atmosphere of 5% CO2 for 2 h. Absorbance levels were measured spectrophotometrically (Epoch) at a wavelengths of 600 nm for resazurin and 690 nm as a reference.

[10] = test system: C. albicans strains; experiment: Fungistatic activity assay, broth microdilution, values given over several strains; type: cell-based, Candida albicans; details: Candida albicans, read-out: MIC50 (over three strains)
Experimental: as §1, §2

| Compound | MIC50 [2] [µg/mL] | hemolysis at 1 h, 10 µM [3] [%] | hemolysis at 1 h, 20 µM [3] [%] | hemolysis at 1 h, 40 µM [3] [%] | hemolysis at 1 h, 60 µM [3] [%] | hemolysis at 1 h, 80 µM [3] [%] | hemolysis at 1 h, 100 µM [3] [%] | Fluorescence anisotropy of the DPH probe ([4]; 20 µM) | Fluorescence anisotropy of the DPH probe ([4]; 60 µM) | Fluorescence anisotropy of the DPH probe ([4]; 100 µM) | MIC50 [6] [µg/mL] | MIC50 ([7]; Candida albicans, 38, 24 h) [µg/mL] | Effect on MG63 proliferation / viability (in words) [9] | Change in DPH anisotropy / RBCs membrane fluidity (in words) [4] | further results |
| --- | --- | --- | --- | --- | --- | --- | --- | --- | --- | --- | --- | --- | --- | --- | --- |
| CC(O)C(O)c1ccc2c(c1)OCO2 (centres unmarked) [1b, 1-(1,3-benzodioxol-5-yl)propane-1,2-diol] | 177 (≈ 902 µM) | 2.28 ± 0.251 | 1.86 ± 0.293 | 1.98 ± 0.272 | 1.88 ± 0.251 | 2.39 ± 0.349 | 2.58 ± 0.321 | 0.247 ± 0.018 | 0.274 ± 0.036 | 0.252 ± 0.012 |  |  |  |  | MIC50 [1]: 107 µg/mL (≈ 545 µM); Effect on Caco-2 proliferation / viability (in words) ([5]; 24 h, 1, 50 and 200 μg/mL): strongest inhibition |
| CC=Cc1ccccc1 [2a, prop-1-en-1-yl benzene] |  |  |  |  |  |  |  | 0.262 ± 0.020 | 0.268 ± 0.023 | 0.267± 0.006 | > 250 | > 250 | promoted MGC63 proliferation |  | Effect on HepG2 proliferation / viability (in words) ([8]; 24 h, 1, 50 and 200 μg/mL): more strongly significantly suppressed the viability |
| CC(O)C(=O)c1ccc2c(c1)OCO2 (centres unmarked) [1c, 1-(1,3-benzodioxol-5-yl)-2-hydroxypropan-1-one] | > 250 | 1.46 ± 0.08 | 1.17 ± 0.02 | 1.81 ± 0.302 | 1.85 ± 0.027 | 1.41 ± 0.295 | 1.51 ± 0.576 | 0.260 ± 0.011 | 0.267 ± 0.019 | 0.277 ± 0.078 |  |  | suppressed the proliferation |  | MIC50 [10]: 178 to 200 µg/mL (≈ 917 to 1030 µM) |
| COc1ccc(C(=O)C(C)O)cc1 (centres unmarked) [3c, 2-hydroxy-1-(4-methoxyphenyl)propan-1-one] |  | 1.83 ± 0.355 | 1.65 ± 0.509 | 1.73 ± 0.174 | 2.33 ± 0.436 | 2.15 ± 0.161 | 1.53 ± 0.134 | 0.239 ± 0.006 | 0.249 ± 0.007 | 0.244 ± 0.003 |  |  | promoted MGC63 proliferation | a decrease in anisotropy | MIC50 ([7]; Candida albicans, C. albicans 38, 24 h, 35°C, tested 10–250 μg/mL, read-out: MIC50): 61 µg/mL (≈ 339 µM); Effect on Caco-2 proliferative activity (in words) ([5]; 24 h, 50 μg/mL): induced the proliferative activity; Effect on HepG2 proliferative activity (in words) ([8]; 24 h, 50 μg/mL): induced the proliferative activity; Effect on MG63 proliferative activity / viability (in words) ([9]; 24 h, 50 μg/mL): induced the proliferative activity |
| CC(O)C(=O)c1ccccc1 (centres unmarked) [2c, 2-hydroxy-1-phenylpropan-1-one] |  | 1.16 ± 0.027 | 1.86 ± 0.697 | 1.42 ± 0.55 | 1.74 ± 0.59 | 1.94 ± 0.154 | 2.46 ± 0.322 | 0.236 ± 0.026 | 0.240 ± 0.019 | 0.238 ± 0.002 | > 250 | > 250 | promoted MGC63 proliferation | a decrease in anisotropy |  |
